Entries after “also recorded” stand apart in the source; their conditions may differ.
How the values were obtained:
Assay type in all cases: in vivo, rat (male Sprague Dawley)
[1] = tested on: gastric damage due to stress induced by restricted water-immersion; test: Gastric damage due to stress induced by restricted water-immersion (single administration); conditions: for lesion index (% to control): 10 rats
Description: (§1) Male Sprague Dawley rats weighing from 240 to 280 g were used as experimental animals.
(§2) As H2 B, famotidine, and as gastrin receptor antagonist, L-365,260 described in Example 281 of Japanese Patent Publication (KOKAI) 63-238069 (EP 167,919; EP 284,256; U.S. Pat. No. 4,820,834; U.S. Pat. No. 5,004,741)), were used. […] For administration, a suspension of 10 mg famotidine or L-365,260 in 1 ml vehicle (0.5% methyl cellulose solution) was prepared. The combined formulation is a mixture of an equal amount of each suspension.
(§3) A previously determined dose of each test compound (1.0 ml or 3.0 ml/kg) was charged in a syringe and administered orally to a rat directly into gaster using a stainless probe needle (.phi.1.2×L 80 mm) equipped to the syringe.
(1) Gastric damage due to stress induced by restricted water-immersion (single administration test)
Twenty four hour starved (ad libitum for water) male Sprague Dawley rats (270-290 g) were orally administered with a test compound and, 30 min later, were loaded with stress in the following manner. Rats were placed in a stress cage (Natsume Seisakusyo) and immersed in water tank at 23° C. upto the level of pectoral processus xiphoideus [Takagi et al, Chem. Pharm. Bull (Tokyo) 12, 465-472 (1964)]. Seven hours later, animals were withdrawn from the water tank and killed with ether. The gaster was extracted and 1% formalin solution (13 ml) was injected in it. […] The gaster was observed under anatomic microscope (x10) and longer diameter (mm) of each damages (bleeding erosion) appearing around fundic glands was measured.

[2] = tested on: aspirin-induced gastric mucosa damage; test: Aspirin-induced gastric mucosa damage following continuous administration; conditions: for lesion index (mm^2): 10 mg/kg p.o., 7 days, aspirin 200 mg/kg after two-day interruption; for aspirin-induced gastric mucosa damage (in words): continuous administration, two-day interruption
Description: as §1, §2, §3
(§4) B. Continuous administration test
(§5) (A) A group consists of animals that received vehicle (0.5% methyl cellulose solution, 1 ml/kg).
(§6) (B) A group consists of animals that received famotidine (a suspension of 10 mg famotidine in 1 ml 0.5% methyl cellulose) continuously at a dose of 10 or 30 mg/kg/day.
(§7) (C) A group consists of animals that received L-365,260 continuously at a dose of 10 mg/kg/day.
(§8) (D) A group consists of animals that received a combined formulation of famotidine and L-365,260 at a dose of 10 mg/kg/day for each compound.
(3) Aspirin-induced gastric mucosa damage following a continuous administration of famotidine
After two-day-interruption following a continuous administration of famotidine, aspirin (200 mg/kg) was administered to rats orally. Seven hours later, gaster was extracted under ether anesthetization and subjected to formalin treatment with 1% formalin solution. The length (mm) of gastric mucosa damage appearing around fundic glands was then measured. Lesion index was calculated by adding all the measurements. Rats had been starved for 24 hr before aspirin administration (ad libitum for water).

gastric acid secretion = test: Basic gastric acid secretion after interruption following continuous administration (pylorus ligation); conditions: for basic gastric acid secretion (in words): P<0.05
Description: as §1, §2, §3, §4, §5, §6, §7, §8
(2) Basic gastric acid secretion after interruption following the continuous administration of famotidine
To a rat bred normally was administered continuously famotidine at a dose of 10 or 30 mg/kg/day for a week. After the final administration, the basis gastric acid secretion (total acid excretion) was determined according to the pylorus ligation method (4-hour-method) [Shay, H. et al., Gastroenterology, 5: 43-61 (1945)]. The determination was carried out following the final administration, […], […]
Thus, rats were subjected to laparotomy under ether anesthetization and pylorus was ligated. Four hours later, gaster was extracted under ether anaesthetization and the accumulated gastric juice was collected. After centrifugation (3000 rpm, 10 min), pH and acidity of gastric juice was determined. The acidity was measured upto pH 7.0 with 0.1N NaOH. The total acid secretion (μEq/4 hr) was calculated by multiplying acidity by the volume of juice for each animal.

[3] = day 2 after 7-day treatment, 10 mg/kg/day (Table 6)
[4] = day 3 after 7-day treatment, 10 mg/kg/day (Table 6)
[5] = immediately after 7 days, 10 mg/kg/day
[6] = immediately after 7 days, 30 mg/kg/day

`NC(N)=Nc1nc(CSCCC(N)=NS(N)(=O)=O)cs1` [Famotidine, famotidine] was tested, and the “lesion index (% to control)” value ([1]; 1 mg/kg p.o.) was 33.4 ± 5.5 % to control, the “inhibition of appearance of stress gastric damage (in words)” value ([1]; 3 mg/kg) was “inhibited the appearance significantly” and the “lesion index (% to control)” value ([1]; 3 mg/kg p.o.) was 33.4 ± 5.5 % to control. For the same compound, the “lesion index (mm^2)” value [2] was 67.0 ± 14.2 mm^2, the “aspirin-induced gastric mucosa damage (in words)” value [2] was “the condition deteriorated significantly; also recorded: the ulcer index got worse significantly on the 2nd day after interruption” and the “basic gastric acid secretion (in words)” value (gastric acid secretion; 10 mg/kg/day, after a 48-hour interruption) was “increased significantly”. For the same compound, the “basic gastric acid secretion (in words)” value (gastric acid secretion; 10 mg/kg/day, immediately after interrupting) was “inhibited significantly”, the “basic gastric acid secretion (in words)” value (gastric acid secretion; 30 mg/kg/day, after a 4-day interruption) was “increased significantly” and the “basic gastric acid secretion (in words)” value (gastric acid secretion; 30 mg/kg/day, immediately after interrupting) was “inhibited significantly”. For the same compound, the “increase in the basic acid secretion, acid rebound (in words)” value (gastric acid secretion; 2nd day after interruption following continuous administration) was “An increase in the basic acid secretion (acid rebound) was observed”, the “inhibition (%) of total acid secretion” value (gastric acid secretion; 24 hr after 7-day treatment, 10 mg/kg/day) was -38.3% and the total acid secretion (gastric acid secretion; 24 hr after 7-day treatment, 10 mg/kg/day (Table 4)) was 821.0 ± 214.2 μEq/4 hr. The “inhibition (%) of total acid secretion” value (gastric acid secretion; 48 hr after 7-day treatment, 10 mg/kg/day) was -105.7%, the total acid secretion (gastric acid secretion; 48 hr after 7-day treatment, 10 mg/kg/day (Table 4)) was 948.9 ± 187.5 μEq/4 hr and the total acid secretion (gastric acid secretion; [3]) was 788.4 ± 217.7 μEq/4 hr. For the same compound, the total acid secretion (gastric acid secretion; [4]) was 682.4 ± 132.6 μEq/4 hr, the “inhibition (%) of total acid secretion” value (gastric acid secretion; day 3 after 7-day treatment, 30 mg/kg/day) was -45.3% and the “inhibition (%) of total acid secretion” value (gastric acid secretion; day 4 after 7-day treatment, 30 mg/kg/day) was -44.2%. The “inhibition (%) of total acid secretion” value (gastric acid secretion; [5]) was 61.6%, the total acid secretion (gastric acid secretion; [5]) was 151.8 ± 29.8 μEg/49 hr and the “inhibition (%) of total acid secretion” value (gastric acid secretion; [6]) was 59.9%. It also gave a total acid secretion (gastric acid secretion; [6]) of 158.4 ± 54.9 μEg/49 hr.

For `Cc1cccc(NC(=O)N[C@@H]2N=C(c3ccccc3)c3ccccc3N(C)C2=O)c1` [L-365,260], the “lesion index (% to control)” value ([1]; 1 mg/kg p.o.) was 130.4 ± 20.6 % to control, the “lesion index (% to control)” value ([1]; 3 mg/kg p.o.) was 84.7 ± 17.4 % to control and the “inhibition of appearance of stress gastric damage (in words)” value ([1]; at either dose (1 or 3 mg/kg)) was “does not inhibit the appearance of stress gastric damage”. The “lesion index (mm^2)” value [2] was 43.2 ± 13.7 mm^2, the “aspirin-induced gastric mucosa damage (in words)” value [2] was “the condition seemed to have tendency to deteriorate, but it is not significant” and the “acid excretion after continuous administration alone (in words)” value (gastric acid secretion; alone for a week) was “did not differed from those obtained in control group”. It also gave a total acid secretion (gastric acid secretion; [3]) of 631.4 ± 147.9 μEq/4 hr and a total acid secretion (gastric acid secretion; [4]) of 681.0 ± 142.9 μEq/4 hr.

Source: patent US5776929A, “Benzodiazepine derivative” (Shionogi & Co., Ltd., priority 1993, dated 1998)
